Experimental findings from patent publication US20220220103A1, “CYCLIN-DEPENDENT KINASE INHIBITORS” (SPV THERAPEUTICS INC., priority 2018, published 2022) are described below.

What all share (type): biochemical
The target of one test is CDK4-CYCLIND1 (Homo sapiens, UniProt P11802). In words: Microfluidic LabChip inhibition assay, CDK4-CYCLIND1. Conditions: ATP 200 μM. The protocol:
(§1) The reaction was terminated by the addition of EDTA. The plates were analyzed using a Caliper LabChip 3000.
(§2) Additional inhibition assays were performed as described above.

In a further test the target is CDK1/B (Homo sapiens, UniProt P06493). In words: Inhibition assay, CDK1/B. Conditions: Table 3a; read-out: CDK1/B IC50. The procedure:
as §1, §2

The next test deals with CDK2-CYCLINA (Homo sapiens, UniProt P24941). In words: Microfluidic LabChip inhibition assay, CDK2-CYCLINA. Conditions: ATP 50 μM. The procedure:
as §1, §2

Another test has as its target CDK7 CyclinH (Homo sapiens, UniProt P50613). In words: Inhibition assay, CDK7 CyclinH. The procedure: as §1, §2
Another test addresses CDK9-CYCLINT1 (Homo sapiens, UniProt P50750). In words: Microfluidic LabChip inhibition assay, CDK9-CYCLINT1. Conditions: ATP 10 μM. The procedure: as §1, §2
For a further test, the target named is CDK6-CYCLIND3 (Homo sapiens, UniProt Q00534). In words: Microfluidic LabChip inhibition assay, CDK6-CYCLIND3. Conditions: ATP 300 μM. The protocol:
as §1, §2

The mark [1] stands for this setting: Table 3a, second values in parentheses on the line below, not explained, read-out: CDK4 CyclinD1 IC50.
Where [2] appears, read: Table 3b, second values in parentheses on the line below, not explained, read-out: CDK4 CyclinD1 IC50.
[3] abbreviates: Table 3a, read-out: CDK6 CyclinD3 IC50.
Setting [4] is: Table 2, 25° C., read-out: CDK4 IC50.
[5] abbreviates: Table 2, 25° C., read-out: CDK6 IC50.

Values joined by “and” are separate entries in the source; they are usually repeats but may differ in a detail not shown here. Equal values may be shown once. Read-outs that look alike come from different tables or passages of the source.

CDK1/B, sequence (P06493 whole entry): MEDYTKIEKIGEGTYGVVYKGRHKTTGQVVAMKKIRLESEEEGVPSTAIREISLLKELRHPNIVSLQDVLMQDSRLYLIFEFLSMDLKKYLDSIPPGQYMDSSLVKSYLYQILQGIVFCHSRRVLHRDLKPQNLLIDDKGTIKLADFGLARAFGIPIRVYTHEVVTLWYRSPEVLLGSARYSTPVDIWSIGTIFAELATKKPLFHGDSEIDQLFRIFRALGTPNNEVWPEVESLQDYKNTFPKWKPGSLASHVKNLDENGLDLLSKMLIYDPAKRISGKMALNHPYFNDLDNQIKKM
CDK1/B, sequence (P14635 whole entry partner): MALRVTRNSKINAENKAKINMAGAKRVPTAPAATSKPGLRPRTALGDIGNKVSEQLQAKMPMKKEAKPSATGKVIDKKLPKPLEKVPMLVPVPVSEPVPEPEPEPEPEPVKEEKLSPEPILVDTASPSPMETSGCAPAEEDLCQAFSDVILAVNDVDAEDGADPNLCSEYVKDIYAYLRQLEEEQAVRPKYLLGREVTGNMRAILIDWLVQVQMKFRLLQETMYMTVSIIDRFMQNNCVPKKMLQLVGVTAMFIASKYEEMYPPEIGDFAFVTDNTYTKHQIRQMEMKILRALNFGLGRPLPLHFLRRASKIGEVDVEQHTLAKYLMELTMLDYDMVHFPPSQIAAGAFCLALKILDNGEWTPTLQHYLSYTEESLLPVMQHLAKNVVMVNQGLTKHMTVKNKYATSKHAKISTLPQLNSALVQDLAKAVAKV
CDK7 CyclinH, sequence (P50613 whole entry): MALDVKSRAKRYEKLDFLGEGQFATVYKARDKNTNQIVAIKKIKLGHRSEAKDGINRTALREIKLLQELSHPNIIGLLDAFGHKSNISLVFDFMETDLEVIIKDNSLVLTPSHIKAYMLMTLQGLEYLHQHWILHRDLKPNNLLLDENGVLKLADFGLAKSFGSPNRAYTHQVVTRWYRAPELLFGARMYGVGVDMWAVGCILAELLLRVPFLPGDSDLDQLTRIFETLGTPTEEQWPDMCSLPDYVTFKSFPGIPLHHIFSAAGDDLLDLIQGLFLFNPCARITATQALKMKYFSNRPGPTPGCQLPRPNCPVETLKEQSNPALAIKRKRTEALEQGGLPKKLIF
CDK7 CyclinH, sequence (P51946 whole entry partner): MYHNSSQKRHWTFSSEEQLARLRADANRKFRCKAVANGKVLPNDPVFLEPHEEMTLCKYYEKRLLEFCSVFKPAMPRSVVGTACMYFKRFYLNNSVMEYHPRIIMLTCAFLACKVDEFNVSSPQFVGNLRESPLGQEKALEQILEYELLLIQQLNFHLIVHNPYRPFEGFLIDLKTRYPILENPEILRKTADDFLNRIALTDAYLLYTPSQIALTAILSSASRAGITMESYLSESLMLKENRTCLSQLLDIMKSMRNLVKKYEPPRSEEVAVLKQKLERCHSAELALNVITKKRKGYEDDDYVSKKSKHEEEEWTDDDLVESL
CDK7 CyclinH, sequence (P51948 whole entry partner): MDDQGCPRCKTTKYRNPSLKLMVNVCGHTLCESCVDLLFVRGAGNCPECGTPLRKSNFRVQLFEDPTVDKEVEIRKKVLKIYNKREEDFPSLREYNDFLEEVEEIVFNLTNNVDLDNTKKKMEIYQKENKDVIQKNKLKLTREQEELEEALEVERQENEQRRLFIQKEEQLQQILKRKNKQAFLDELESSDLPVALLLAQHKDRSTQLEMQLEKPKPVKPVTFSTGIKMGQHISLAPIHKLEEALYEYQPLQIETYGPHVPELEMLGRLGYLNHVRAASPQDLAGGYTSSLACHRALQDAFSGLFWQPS
CDK6-CYCLIND3, sequence (Q00534 whole entry): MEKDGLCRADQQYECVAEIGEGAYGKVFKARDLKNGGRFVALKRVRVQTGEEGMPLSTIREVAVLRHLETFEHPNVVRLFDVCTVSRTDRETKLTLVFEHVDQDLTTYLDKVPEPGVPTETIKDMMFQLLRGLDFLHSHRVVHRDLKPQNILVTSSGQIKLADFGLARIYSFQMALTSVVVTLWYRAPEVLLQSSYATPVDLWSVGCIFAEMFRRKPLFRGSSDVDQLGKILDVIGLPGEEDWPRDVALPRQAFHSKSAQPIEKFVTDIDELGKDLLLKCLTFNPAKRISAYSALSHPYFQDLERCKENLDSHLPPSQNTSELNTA
CDK6-CYCLIND3, sequence (P30281 whole entry partner): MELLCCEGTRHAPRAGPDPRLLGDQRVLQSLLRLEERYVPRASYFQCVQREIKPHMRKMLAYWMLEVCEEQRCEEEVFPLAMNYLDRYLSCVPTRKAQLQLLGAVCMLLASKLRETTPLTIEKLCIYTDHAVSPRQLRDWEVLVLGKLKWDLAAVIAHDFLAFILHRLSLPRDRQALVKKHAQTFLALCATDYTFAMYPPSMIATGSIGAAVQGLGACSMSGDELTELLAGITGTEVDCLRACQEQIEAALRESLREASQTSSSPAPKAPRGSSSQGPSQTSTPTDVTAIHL
CDK4-CYCLIND1, sequence (P11802 whole entry): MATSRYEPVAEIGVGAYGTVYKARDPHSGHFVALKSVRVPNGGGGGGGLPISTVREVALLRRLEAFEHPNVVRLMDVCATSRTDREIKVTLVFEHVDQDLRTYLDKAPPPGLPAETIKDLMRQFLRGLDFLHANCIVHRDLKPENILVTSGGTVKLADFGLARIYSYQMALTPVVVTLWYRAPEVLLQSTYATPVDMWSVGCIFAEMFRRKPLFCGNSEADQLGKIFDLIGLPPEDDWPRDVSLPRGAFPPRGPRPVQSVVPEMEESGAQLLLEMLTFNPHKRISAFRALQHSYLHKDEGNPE
CDK4-CYCLIND1, sequence (P24385 whole entry partner): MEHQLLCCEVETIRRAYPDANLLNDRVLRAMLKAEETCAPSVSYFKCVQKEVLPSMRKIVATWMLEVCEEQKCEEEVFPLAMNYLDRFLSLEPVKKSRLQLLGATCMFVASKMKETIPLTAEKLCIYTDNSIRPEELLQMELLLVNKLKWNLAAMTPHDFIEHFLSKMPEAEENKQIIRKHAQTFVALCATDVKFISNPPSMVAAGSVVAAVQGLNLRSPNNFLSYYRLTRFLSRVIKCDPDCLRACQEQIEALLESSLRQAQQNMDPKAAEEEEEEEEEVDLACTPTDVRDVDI
CDK9-CYCLINT1, sequence (P50750 whole entry): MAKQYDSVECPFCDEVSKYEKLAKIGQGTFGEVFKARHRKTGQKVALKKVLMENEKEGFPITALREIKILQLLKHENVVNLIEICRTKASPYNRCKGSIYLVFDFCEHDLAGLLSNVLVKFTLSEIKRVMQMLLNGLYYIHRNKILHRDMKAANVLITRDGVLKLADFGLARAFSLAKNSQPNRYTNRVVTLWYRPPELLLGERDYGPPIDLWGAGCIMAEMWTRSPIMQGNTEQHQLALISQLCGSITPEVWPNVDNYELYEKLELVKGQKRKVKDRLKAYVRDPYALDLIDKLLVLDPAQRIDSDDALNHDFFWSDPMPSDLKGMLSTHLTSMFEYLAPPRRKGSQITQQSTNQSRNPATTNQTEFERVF
CDK9-CYCLINT1, sequence (O60563 whole entry partner): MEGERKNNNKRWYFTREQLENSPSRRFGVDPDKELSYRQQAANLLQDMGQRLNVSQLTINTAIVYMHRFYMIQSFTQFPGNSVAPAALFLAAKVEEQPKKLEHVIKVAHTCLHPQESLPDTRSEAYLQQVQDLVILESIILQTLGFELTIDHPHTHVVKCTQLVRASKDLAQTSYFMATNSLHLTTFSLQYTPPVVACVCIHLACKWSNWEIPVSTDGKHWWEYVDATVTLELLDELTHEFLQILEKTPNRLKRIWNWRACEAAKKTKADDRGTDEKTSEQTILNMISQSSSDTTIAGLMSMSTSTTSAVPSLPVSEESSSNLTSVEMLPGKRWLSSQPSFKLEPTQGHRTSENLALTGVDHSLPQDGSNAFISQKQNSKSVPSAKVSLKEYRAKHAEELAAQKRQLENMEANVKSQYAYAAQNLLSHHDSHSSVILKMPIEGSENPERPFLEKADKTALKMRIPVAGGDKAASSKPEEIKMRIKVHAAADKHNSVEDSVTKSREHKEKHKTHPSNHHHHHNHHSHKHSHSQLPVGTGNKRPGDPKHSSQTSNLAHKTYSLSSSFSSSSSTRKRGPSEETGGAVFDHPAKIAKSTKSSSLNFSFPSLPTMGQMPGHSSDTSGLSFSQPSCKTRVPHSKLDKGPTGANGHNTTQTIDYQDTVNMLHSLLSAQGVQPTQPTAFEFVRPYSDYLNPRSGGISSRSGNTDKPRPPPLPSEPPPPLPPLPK

As for `Cc1c(C(=O)N(C)C)c(=O)n(C23CC(C2)C3)c2nc(NC3CCN(S(C)(=O)=O)CC3)ncc12` [Compound B156, 8-(bicyclo[1.1.1]pentan-1-yl)-N,N,5-trimethyl-2-((1-(methylsulfonyl)piperidin-4-yl)amino)-7-oxo-7,8-dihydropyrido[2,3-d]pyrimidine-6-carboxamide], the IC50 at CDK4-CYCLIND1 (setting [1]) was 101 nM; at CDK4-CYCLIND1 (setting [2]) it was 101 nM; at CDK1/B, 2820 nM; against CDK2-CYCLINA (Table 3a), 1020 nM; against CDK2-CYCLINA (Table 3b), 1020 nM; against CDK7 CyclinH (Table 3a), more than 10000 nM. Further, the IC50 against CDK7 CyclinH (Table 3b), against CDK9-CYCLINT1 (Table 3a) and against CDK9-CYCLINT1 (Table 3b) was more than 10000 nM in each case.
As for `CC(=O)c1c(C)c2cnc(Nc3ccc(OCCN(C)C)cc3)nc2n(C2CCCC2)c1=O` [Compound B59, 6-acetyl-8-cyclopentyl-2-((4-(2-(dimethylamino)ethoxy)phenyl)amino)-5-methylpyrido[2,3-d]pyrimidin-7(8H)-one], the IC50 at CDK4-CYCLIND1 (setting [1]) is less than 3.2 nM; at CDK4-CYCLIND1 (setting [2]), less than 3.2 nM; on CDK1/B, 527 nM; at CDK2-CYCLINA (Table 3a), 211 nM; against CDK2-CYCLINA (Table 3b) it was 211 nM; against CDK7 CyclinH (Table 3a) it was 640 nM. For the same compound, the IC50 is 640 nM on CDK7 CyclinH (Table 3b), less than 3.2 nM at CDK9-CYCLINT1 (Table 3a) and less than 3.2 nM at CDK9-CYCLINT1 (Table 3b).
For the compound `N#Cc1cc2cnc(Nc3ccc(N4CCN(CCO)CC4)c(F)c3)nc2n(C2CCCC2)c1=O` [Compound B106, 8-cyclopentyl-2-((3-fluoro-4-(4-(2-hydroxyethyl)piperazin-1-yl)phenyl)amino)-7-oxo-7,8-dihydropyrido[2,3-d]pyrimidine-6-carbonitrile], the IC50 at CDK4-CYCLIND1 (setting [1]) is less than 3.2 nM; at CDK4-CYCLIND1 (setting [2]), less than 3.2 nM; at CDK1/B, 509 nM; against CDK2-CYCLINA (Table 3a), 308 nM; on CDK2-CYCLINA (Table 3b), 308 nM; at CDK7 CyclinH (Table 3a), 327 nM. In addition, the figures for the IC50 at CDK7 CyclinH (Table 3b), on CDK9-CYCLINT1 (Table 3a) and at CDK9-CYCLINT1 (Table 3b) were 327 nM, 27.5 nM and 27.5 nM, respectively.
As for `CN1CC2(C1)CN(c1ccc(Nc3ncc4cc(C#N)c(=O)n(C5CCCC5)c4n3)cc1)C2` [Compound B159, 8-cyclopentyl-2-((4-(6-methyl-2,6-diazaspiro[3.3]heptan-2-yl)phenyl)amino)-7-oxo-7,8-dihydropyrido[2,3-d]pyrimidine-6-carbonitrile], the IC50 on CDK4-CYCLIND1 (setting [1]) is 4.02 nM; at CDK4-CYCLIND1 (setting [2]) it was 4.02 nM; at CDK1/B it was 1300 nM; against CDK2-CYCLINA (Table 3a), 500 nM; against CDK2-CYCLINA (Table 3b) it was 500 nM; at CDK7 CyclinH (Table 3a), 2420 nM. Further, the IC50 on CDK7 CyclinH (Table 3b) was 2420 nM; at CDK9-CYCLINT1 (Table 3a), 90.6 nM; against CDK9-CYCLINT1 (Table 3b), 90.6 nM.
For `CC(=O)c1c(C)c2cnc(Nc3ccc(OCCN(C)C)cc3)nc2n(C2CCCC2)c1=O` [Compound B60, 6-acetyl-8-cyclopentyl-2-((4-(2-(dimethylamino)ethoxy)phenyl)amino)-5-methylpyrido[2,3-d]pyrimidin-7(8H)-one], the IC50 was 3 nM and 1.6 nM at CDK4-CYCLIND1 (setting [1]); 3 nM and 1.6 nM at CDK4-CYCLIND1 (setting [2]); 10.1 nM on CDK6-CYCLIND3 (setting [3]); 77.5 nM against CDK2-CYCLINA (Table 3a); 77.5 nM on CDK2-CYCLINA (Table 3b); 1100 nM on CDK7 CyclinH (Table 3a). Also, the results for the IC50 against CDK7 CyclinH (Table 3b), on CDK9-CYCLINT1 (Table 3a) and at CDK9-CYCLINT1 (Table 3b) were 1100 nM, 31.8 nM and 31.8 nM, respectively.
As to `CC(=O)c1c(C)c2cnc(Nc3ccc(N(C)CCN(C)C)cc3)nc2n(C2CCCC2)c1=O` [Compound B155, 6-acetyl-8-cyclopentyl-2-((4-((2-(dimethylamino)ethyl)(methyl)amino)phenyl)amino)-5-methylpyrido[2,3-d]pyrimidin-7(8H)-one], the IC50 at CDK4-CYCLIND1 (setting [1]) is less than 3.2 nM; at CDK4-CYCLIND1 (setting [2]) it was less than 3.2 nM; at CDK1/B, 172 nM; against CDK2-CYCLINA (Table 3a), 81.6 nM; against CDK2-CYCLINA (Table 3b), 81.6 nM; against CDK7 CyclinH (Table 3a) it was 468 nM. The compound also showed an IC50 at CDK7 CyclinH (Table 3b) of 468 nM.
Regarding `COc1cc(Nc2ncc3c(C)c(C(C)=O)c(=O)n(C4CCCC4)c3n2)ccc1OCCN(C)C` [Compound B62, 6-acetyl-8-cyclopentyl-2-((4-(2-(dimethylamino)ethoxy)-3-methoxyphenyl)amino)-5-methylpyrido[2,3-d]pyrimidin-7(8H)-one], the IC50 was 26.3 nM and 14 nM on CDK4-CYCLIND1 (setting [1]); 26.3 nM and 14 nM at CDK4-CYCLIND1 (setting [2]); 37.5 nM at CDK6-CYCLIND3 (setting [3]); 280 nM on CDK2-CYCLINA (Table 3a); 280 nM at CDK2-CYCLINA (Table 3b); 1300 nM against CDK7 CyclinH (Table 3a). The IC50 on CDK7 CyclinH (Table 3b) was determined as 1300 nM; against CDK9-CYCLINT1 (Table 3a), 336 nM; at CDK9-CYCLINT1 (Table 3b), 336 nM.
With `CC(=O)c1c(C)c2cnc(Nc3ccc(OCCN(C)C)c(C)c3)nc2n(C2CCCC2)c1=O` [Compound B61, 6-acetyl-8-cyclopentyl-2-((4-(2-(dimethylamino)ethoxy)-3-methylphenyl)amino)-5-methylpyrido[2,3-d]pyrimidin-7(8H)-one], the IC50 at CDK4-CYCLIND1 (setting [1]) is 1600 nM; at CDK4-CYCLIND1 (setting [2]), 1600 nM; on CDK6-CYCLIND3 (setting [3]) it was 3950 nM; against CDK2-CYCLINA (Table 3a), 7730 nM; on CDK2-CYCLINA (Table 3b) it was 7730 nM; on CDK7 CyclinH (Table 3a) it was more than 100000 nM. The IC50 was more than 100000 nM against CDK7 CyclinH (Table 3b), 790 nM against CDK9-CYCLINT1 (Table 3a) and 790 nM on CDK9-CYCLINT1 (Table 3b).
As for `CC(C)N1CCN(c2ccc(Nc3ncc4cc(C#N)c(=O)n(C5CCCC5)c4n3)c(F)c2)CC1` [Compound B19, 8-cyclopentyl-2-((2-fluoro-4-(4-isopropylpiperazin-1-yl)phenyl)amino)-7-oxo-7,8-dihydropyrido[2,3-d]pyrimidine-6-carbonitrile], the IC50 amounted to 69.1 nM on CDK4-CYCLIND1 (setting [4]) and 89.8 nM on CDK6-CYCLIND3 (setting [5]).
On to `CN(C)[C@H]1CCN(c2ccc(Nc3ncc4cc(C#N)c(=O)n(C5CCCC5)c4n3)cn2)C1` [Compound B44, (S)-8-cyclopentyl-2-((6-(3-(dimethylamino)pyrrolidin-1-yl)pyridin-3-yl)amino)-7-oxo-7,8-dihydropyrido[2,3-d]pyrimidine-6-carbonitrile], for which the IC50 came to 10.6 nM at CDK4-CYCLIND1 (setting [4]) and 30.9 nM at CDK6-CYCLIND3 (setting [5]).
On to `CN(C)CCOc1ccc(Nc2ncc3cc(C#N)c(=O)n(C4CCCC4)c3n2)cc1` [Compound B15, 8-cyclopentyl-2-((4-(2-(dimethylamino)ethoxy)phenyl)amino)-7-oxo-7,8-dihydropyrido[2,3-d]pyrimidine-6-carbonitrile], for which the IC50 turned out to be 4.62 nM at CDK4-CYCLIND1 (setting [4]) and 14.3 nM on CDK6-CYCLIND3 (setting [5]).
Turning to `CC(=O)c1c(C)c2cnc(Nc3ccc(N(C)CCN(C)C)cc3)nc2n(C23CC(C2)C3)c1=O` [Compound B154, 6-acetyl-8-(bicyclo[1.1.1]pentan-1-yl)-2-((4-((2-(dimethylamino)ethyl)(methyl)amino)phenyl)amino)-5-methylpyrido[2,3-d]pyrimidin-7(8H)-one], the IC50 at CDK1/B is 1720 nM; against CDK2-CYCLINA (Table 3a), 1520 nM; against CDK2-CYCLINA (Table 3b), 1520 nM; at CDK7 CyclinH (Table 3a), 785 nM; against CDK7 CyclinH (Table 3b), 785 nM.
As for `CN(C)CCOc1ccc(Nc2ncc3cc(C#N)c(=O)n(C4CCCC4)c3n2)cn1` [Compound B11, 8-cyclopentyl-2-((6-(2-(dimethylamino)ethoxy)pyridin-3-yl)amino)-7-oxo-7,8-dihydropyrido[2,3-d]pyrimidine-6-carbonitrile], the IC50 at CDK4-CYCLIND1 (setting [4]) turned out to be 37.6 nM; at CDK6-CYCLIND3 (setting [5]) it was 133 nM.
As to `CC(=O)c1c(C)c2cnc(Nc3ccc(N4CC(C)NC(C)C4)cc3)nc2n(C2CCCC2)c1=O` (stereo not drawn) [Compound B150, 6-acetyl-8-cyclopentyl-2-((4-(3,5-dimethylpiperazin-1-yl)phenyl)amino)-5-methylpyrido[2,3-d]pyrimidin-7(8H)-one], the IC50 at CDK4-CYCLIND1 (setting [1]) was less than 3.2 nM; at CDK4-CYCLIND1 (setting [2]), less than 3.2 nM; at CDK1/B, 501 nM; at CDK2-CYCLINA (Table 3a), 196 nM; at CDK2-CYCLINA (Table 3b), 196 nM; against CDK7 CyclinH (Table 3a), 655 nM. At CDK7 CyclinH (Table 3b), this compound returned an IC50 of 655 nM.
For the compound `N#Cc1cc2cnc(Nc3ccc(OCCN4CCCC4)cn3)nc2n(C2CCCC2)c1=O` [Compound B7, 8-cyclopentyl-7-oxo-2-((5-(2-(pyrrolidin-1-yl)ethoxy)pyridin-2-yl)amino)-7,8-dihydropyrido[2,3-d]pyrimidine-6-carbonitrile], the IC50 is 101 nM on CDK4-CYCLIND1 (setting [4]) and 103 nM on CDK6-CYCLIND3 (setting [5]).
Turning to `CN1CCN(c2ccc(Nc3ncc4cc(C#N)c(=O)n(C5CCCC5)c4n3)cc2F)CC1` [Compound B17, 8-cyclopentyl-2-((3-fluoro-4-(4-methylpiperazin-1-yl)phenyl)amino)-7-oxo-7,8-dihydropyrido[2,3-d]pyrimidine-6-carbonitrile], the IC50 worked out at 1.78 nM at CDK4-CYCLIND1 (setting [4]) and 7.71 nM at CDK6-CYCLIND3 (setting [5]).
Regarding `N#Cc1cc2cnc(Nc3ccc(N4CC5(CNC5)C4)cn3)nc2n(C2CCCC2)c1=O` [Compound B32, 2-((5-(2,6-diazaspiro[3.3]heptan-2-yl)pyridin-2-yl)amino)-8-cyclopentyl-7-oxo-7,8-dihydropyrido[2,3-d]pyrimidine-6-carbonitrile], the figures for the IC50 on CDK4-CYCLIND1 (setting [4]) and on CDK6-CYCLIND3 (setting [5]) were 21.1 nM and 33.4 nM, respectively.
